Test results taken from publication doi:10.64898/2025.12.05.692609v2, “Early intervention with a PACAP lactoside following repetitive mild traumatic brain injury prevents persistent LHb hyperactivity and motivational deficits in male mice” (bioRxiv, 2025).
Where two headings read alike, the source gives them in different places. Where a SMILES comes first, the peptide text is derived from it. [ ]: non-standard residue; d: D form. The star is where a group is joined. X1 = OC[C@H]1O[C@@H](O[C@H]2[C@H](O)[C@@H](O)[C@H](*)O[C@@H]2CO)[C@H](O)[C@@H](O)[C@H]1O; Nle = CCCC[C@H](N)C(=O)O

Columns and labels:
[1] = PWR membrane partitioning into receptor-free egg phosphatidylcholine membranes; type: physicochemical
[2] = Time-locked brain microdialysis and blood sampling pharmacokinetics; conditions: for Brain Dialysate: AUC / Brain Dialysate: Cmax / Brain Dialysate: Tmax: 3 mg/kg IP, striatal microdialysis 0-60 min; for Brain Dialysate: AUC: TES2300 and TES2320 co-injected, estimated concentration by probe recovery; for Brain Dialysate: AUC / Brain Dialysate: Cmax: LC-MS/MS, mean ± SEM; for Brain Dialysate: Cmax: estimated by probe recovery
Text: (§1) Mice (PN56-70) were anesthetized with isoflurane (1%) mixed with medical grade oxygen (0.75 L/min). Two incisions were made: a 0.5 cm incision in between the scapulae and a 1-cm ventral neck incision right of midline. The right carotid artery was isolated, ligated cranially with 4-0 silk, and temporarily occluded at the caudal end of the vessel with a micro clamp. A small incision was made into the carotid artery and PE-10 tubing, preflushed with heparin/glycerol (500 IU/ml, 50:50) and connected to a 28-gauge PinPort^TM (PNP3F28; Instech, Plymouth Meeting, PA), was advanced toward the heart. The clamp was released, the caudal ligature secured the catheter, and the catheter was tunneled subcutaneously to the scapular incision. Both incisions were closed with staples. The mouse was immediately transferred to a stereotaxic frame to implant the microdialysis probe.
(§2) A midsagittal skull incision was followed by a craniotomy (AP +0.5 mm, ML +2.0 mm from bregma). The dura was removed and a microdialysis probe (CMA12, 8309664, 4 mm membrane, 100 kDa cutoff; HBio, Holliston, MA) was inserted into the striatum (DV −5.0 mm).
(§3) Microdialysis probes were primed with artificial cerebrospinal fluid aCSF (15 mM Tris HCl, 10 mM Tris base, 126 mM NaCl, 2.5 KCl, 1.2 mM NaH2PO4, 2mM Na2SO4, and adjusted pH to 7.4) containing 0.05% bovine serum albumin (BSA) at a rate of 1 μL/minute using a two channel dual syringe pump (Fusion 101A Syringe Pump; Chemyx, Stafford, TX) for one-hour and then placed into the striatum at the coordinates listed above for 30-minutes prior to collecting baseline dialysate. Using the other pump channel, the preservation solution containing 150 ng/mL DADLE ([D-Ala2, D-Leu5]-Enkephalin; 10% acetic acid in 0.05% BSA in aCSF as an internal standard) is combined with the dialysate immediately via a micro-Tee at a flow rate of 1 μL/min (Figure 2A.). […] Dialysate was collected at −10, +10, +20, +30, +40, +50, and +60 minutes. Blood was collected at −5, +1, +5, +15, +25, +35, +45, and +55 minutes to correspond to the midpoint of the dialysate fraction. To separate plasma from whole blood, each sample was collected in ethylenediamine tetraacetic acid capillary tubes (CT-CB300-K2EDTA; Sarstedt, Nümbrecht, Germany), inverted repeatedly for 30 seconds, and centrifuged for 5 minutes at 2,500 x g in a refrigerated centrifuge (Galaxy Mini Centrifuge; VWR, Radnor, PA).
(§4) Biological sample preparation: Plasma samples (20 µL) were mixed with 20 µL of an internal standard working solution containing 150 ng/mL (DADLE) in 10% acetic acid. To precipitate proteins in both plasma and dialysate, 120 µL of ice-cold methanol was added to the plasma mixture and the dialysate samples (20 µL, premixed with preservation solution). After vortexing for 30 seconds, samples were centrifuged at 8,000 x g for 10-minutes at 4°C. The supernatant was evaporated using a Savant Speedvac concentrator. Dialysate and plasma samples were reconstituted in 20 μL of diluent (5% methanol and 0.1% formic acid in nanopure water).
(§5) Liquid chromatography and mass spectrometry: Samples were injected into the Thermo Fisher Scientific UHPLC-MS/MS TSQ system. Separation was achieved on an ACQUITY UPLC HSS T3 C18 Column (100 Å, 1.8 µm, 2.1 × 100 mm) and VanGuard pre-column (HSS T3 1.8 μm, 2.1 × 5 mm) and a HyperSep Retain PEP trap column (2.1 × 10 mm) with the column temperature set at 40 °C. We used a water-acetonitrile gradient with a flow rate of 0.2 mL/min and a total run time of 25. The mobile phases used were A: 0.1% v/v formic acid in deionized water and B: 0.1% v/v formic acid in acetonitrile, with the following conditions: 0 to 1 min (2 %B diverted to waste), 1.0 to 1.2 min (5% B), 1.2 min to 6 min (15% B), 6 min to 11 min (30% B), 11 min to 12.5 min (95% B), 12.5 min to 18 min (95% B), 18 min to 18.5 min (5 %B) 18.5 min to 23.5 min (5% B), 23.5 min to 25 min (2 %B). Injection volumes of 10 µL for dialysate and 5 µL for the plasma sample were used.

[3] = test system: male C57BL/6 mice, repetitive closed-head mTBI
LHb neurons = assay: LHb neuronal excitability, intrinsic properties, rebound bursting, Ih and M-currents in slices after in vivo treatment; set-up: species or system male C57BL/6 mice; conditions: for effect on mTBI-induced LHb hyperexcitability (APs on depolarization): vs mTBI+vehicle P<0.0001, 2-way ANOVA
human PAC1 receptor = target: T1, human PAC1 receptor (Homo sapiens, UniProt P41586); assay: biochemical
T1 sequence (P41586 21-468): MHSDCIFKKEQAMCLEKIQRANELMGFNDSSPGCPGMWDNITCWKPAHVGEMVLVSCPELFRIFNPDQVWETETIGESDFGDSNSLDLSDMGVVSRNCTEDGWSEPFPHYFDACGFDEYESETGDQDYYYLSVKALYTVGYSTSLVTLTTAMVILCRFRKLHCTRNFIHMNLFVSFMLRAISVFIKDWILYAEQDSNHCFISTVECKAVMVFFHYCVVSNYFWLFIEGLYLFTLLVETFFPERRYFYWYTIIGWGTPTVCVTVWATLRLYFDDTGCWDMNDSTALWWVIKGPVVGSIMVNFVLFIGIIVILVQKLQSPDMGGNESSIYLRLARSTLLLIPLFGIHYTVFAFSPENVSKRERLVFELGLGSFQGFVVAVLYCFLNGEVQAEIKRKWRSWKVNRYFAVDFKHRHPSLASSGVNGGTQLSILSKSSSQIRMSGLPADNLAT
Text: Plasmon Waveguide Resonance (PWR) spectroscopy, an enhanced technology related to Surface Plasmon Resonance (SPR) is capable of monitoring molecular anisotropy and measuring mass and structural changes in real time along with molecular interactions with receptor in the lipid bilayer. PWR was utilized to quantify label-free ligand binding affinities. Intact cell membranes containing human PAC1 receptors (purified and isolated from CHO cells, as described below) were immobilized onto the silica surface of a PWR prism element.
The prism was integrated into a PWR spectrometer system (Mainline Scientific, Malvern, PA). […] Binding events, along with any associated conformational shifts in the receptor or lipid matrix, were directly monitored via the angular resonance shifts of parallel (p-polarized) and perpendicular (s-polarized) light.

VPAC1 receptors = conditions: cited from earlier work
in vivo = conditions: C57Bl/6J, mouse, ip, 3 mg/kg
Text: as §1, §2, §3, §4, §5

[4] = C57Bl/6J mice, co-injected, n=4, SEM
[5] = C57Bl/6J mice, co-injected, n=4
[6] = C57Bl/6J, mouse, plasma, ip, 3 mg/kg, SEM
[7] = early intervention, 10 mg/kg i.p. x5
[8] = late intervention, single 10 mg/kg i.p.
[9] = C57Bl/6J mice, 3 mg/kg IP each, co-injected, 0-60 min, n=4, ratio paired t-test

Compound: CCCC[C@H](NC(=O)[C@H](CCC(N)=O)NC(=O)[C@H](CCCCN)NC(=O)[C@H](CCCNC(=N)N)NC(=O)[C@H](Cc1ccc(O)cc1)NC(=O)[C@H](CCCNC(=N)N)NC(=O)[C@H](CO)NC(=O)[C@H](Cc1ccc(O)cc1)NC(=O)[C@H](CO)NC(=O)[C@H](CC(=O)O)NC(=O)[C@@H](NC(=O)[C@H](Cc1ccccc1)NC(=O)[C@@H](NC(=O)CNC(=O)[C@H](CC(=O)O)NC(=O)[C@H](CO)NC(=O)[C@@H](N)Cc1c[nH]cn1)[C@@H](C)CC)[C@@H](C)O)C(=O)N[C@@H](C)C(=O)N[C@H](C(=O)N[C@@H](CCCCN)C(=O)N[C@@H](CCCCN)C(=O)N[C@@H](Cc1ccc(O)cc1)C(=O)N[C@@H](CC(C)C)C(=O)N[C@@H](CO)C(N)=O)C(C)C [TES2300] (H-HSDGIFTDSYSRYRKQ[Nle]AVKKYLS-NH2; N-terminus assumed)
- affinity for PC bilayers relative to TES2320 ([1]; PWR, PC bilayers, unglycosylated variant vs TES2320): ten fold higher affinity
- Kd ([1]; as quoted in the pharmacokinetics section, membrane not specified, read-out: Kd, affinity for the membrane): 0.114 nM
- Brain Dialysate: AUC ([2]; C57Bl/6J mice, n=4, SEM): 703 ± 338 ng·min/mL
- Brain Dialysate: Cmax [2, 4]: 64 ± 21 ng/mL
- Brain Dialysate: Tmax [2, 5]: 8 min
- Kp ([2]; C57Bl/6J, mouse, brain dialysate / plasma, ip, 3 mg/kg): 0.513
- Tmax ([2]; C57Bl/6J, mouse, plasma, ip, 3 mg/kg): 4 min
- AUC(0-t) [2, 6]: 22.8 ng·h/mL
- Cmax [2, 6]: 106 ± 25 ng/mL
- half-life [2, 6]: 8 ± 4 min

Compound: CCCC[C@H](NC(=O)[C@H](CCC(N)=O)NC(=O)[C@H](CCCCN)NC(=O)[C@H](CCCNC(=N)N)NC(=O)[C@H](Cc1ccc(O)cc1)NC(=O)[C@H](CCCNC(=N)N)NC(=O)[C@H](CO)NC(=O)[C@H](Cc1ccc(O)cc1)NC(=O)[C@H](CO)NC(=O)[C@H](CC(=O)O)NC(=O)[C@@H](NC(=O)[C@H](Cc1ccccc1)NC(=O)[C@@H](NC(=O)CNC(=O)[C@H](CC(=O)O)NC(=O)[C@H](CO)NC(=O)[C@@H](N)Cc1c[nH]cn1)[C@@H](C)CC)[C@@H](C)O)C(=O)N[C@@H](C)C(=O)N[C@H](C(=O)N[C@@H](CCCCN)C(=O)N[C@@H](CCCCN)C(=O)N[C@@H](Cc1ccc(O)cc1)C(=O)N[C@@H](CC(C)C)C(=O)N[C@@H](CO[C@@H]1O[C@H](CO)[C@@H](O[C@@H]2O[C@H](CO)[C@H](O)[C@H](O)[C@H]2O)[C@H](O)[C@H]1O)C(N)=O)C(C)C [TES2320] (H-HSDGIFTDSYSRYRKQ[Nle]AVKKYLS(X1)-NH2; N-terminus assumed)
- total grooming time, sucrose splash test ([3]; early intervention, 10 mg/kg i.p. x5, n=12): no effect
- latency to groom, sucrose splash test ([3]; early intervention, 10 mg/kg i.p. x5, n=12, vs mTBI+vehicle p<0.05, one-way ANOVA): effective in preventing the prolonged grooming latency
- latency to groom, sucrose splash test ([3]; late intervention, single 10 mg/kg i.p., n=11, vs sham or early TES2320 p<0.01): continued to exhibit increased grooming latency
- total grooming time, sucrose splash test ([3]; mouse, in vivo, ip, 10 mg/kg): significantly decreased the total grooming time
- effect on mTBI-enhanced Ih currents in LHb neurons (LHb neurons; [7]): insufficient to prevent this Ih enhancement
- effect on mTBI-reduced M-currents in LHb neurons (LHb neurons; [7]): Neither early nor late TES2320 intervention in mTBI mice normalized this reduction
- effect on mTBI-induced LHb hyperexcitability (APs on depolarization) (LHb neurons; early intervention, 10 mg/kg i.p. x5, n=85 cells/13 mice): normalized this hyperexcitability to sham levels
- effect on mTBI-induced hyperpolarization-induced rebound bursting (LHb neurons; early intervention, 10 mg/kg i.p. x5, vs mTBI+vehicle p<0.01, 2-way ANOVA): normalize this mTBI-induced increase in rebound bursting
- effect on mTBI-induced hyperpolarization-induced rebound bursting (LHb neurons; [8]): no effect
- effect on mTBI-reduced M-currents in LHb neurons (LHb neurons; [8]): Neither early nor late TES2320 intervention in mTBI mice normalized this reduction
- effect on mTBI-induced LHb hyperexcitability (APs on depolarization) (LHb neurons; late intervention, single 10 mg/kg i.p., n=31 cells/5 mice): normalized this hyperexcitability to sham levels
- fast afterhyperpolarization (fAHP) amplitude of LHb neurons (LHb neurons; late intervention, single 10 mg/kg i.p., vs mTBI+vehicle p<0.05, one-way ANOVA): significantly diminished
- effect on mTBI-enhanced Ih currents in LHb neurons (LHb neurons; late intervention, single 10 mg/kg i.p., vs sham+vehicle p<0.0001): exaggerated this effect
- Kd (human PAC1 receptor): 0.0045 nM
- Kd ([1]; PWR, receptor-free egg phosphatidylcholine (eggPC) control membranes, read-out: Kd, baseline membrane partitioning affinity): 1.35 nM
- functional potency at VPAC1 receptors (VPAC1 receptors): picomolar functional potency
- Tmax (in vivo): 10 min
- AUC(0-t) (in vivo; SEM): 101 ng·h/mL
- Cmax (in vivo; SEM): 313 ± 62 ng/mL
- half-life (in vivo; SEM): 13 ± 6 min
- fold increase of AUC over TES2300 in the CSF (brain dialysate) [2, 9]: 1.43 fold
- fold increase of AUC over TES2300 in the plasma [2, 9]: 4.73 fold
- Brain Dialysate: AUC ([2]; C57Bl/6J mice, n=4, SEM): 1071 ± 574 ng·min/mL
- Brain Dialysate: Cmax [2, 4]: 74 ± 22 ng/mL
- Brain Dialysate: Tmax [2, 5]: 8 min
